The values that follow come from US20140336259A1, “PHENOLIC COMPOUNDS WITH ANTIOXIDANT AND ANTI-CANCER PROPERTIES, ANALOGS AND SYNTHESIS THEREOF” (priority 2011, published 2014).

In brackets after ≈: the same amount, converted by molar mass. Several values for one entry are separate records, joined by “and”; a condition that tells them apart may be missing. Equal values may be shown once. Read-outs that look alike come from different tables or passages of the source.

By IC50 is commonly meant the concentration that inhibits the measured activity by half.

The subject of data set [1] is MDA-MB-231 (ER negative) human breast cancer cells. Nature of the data set: MTS antiproliferative/cytotoxicity assay on MDA-MB-231 cells. To be noted: Homo sapiens. It counts as cell-based.
Another data set deals with colon cancer cell lines. To be noted: Gonzales-Sarrias et al. 2011; cited from earlier work.
In data set [2] the test system is MCF-7 (estrogen receptor (ER) positive) human breast cancer cells. Put plainly: MTS antiproliferative/cytotoxicity assay on MCF-7 cells. To be noted: for MCF-7 IC50: 72 h treatment, mean ± S.D., vs DMSO 0.5% control.

As for `COc1cc(C(CO)C(c2ccc(O)c(OC)c2)c2ccc(O)c(OC)c2)ccc1O` (centres unmarked) [QUEBECOL, 4,4′,4″-(3-Hydroxypropane-1,1,2-triyl)tris(2-methoxyphenol)], the IC50 in data set [1] (MDA-MB-231, 24 h, 24 h, combination study Table 5B, T starting 50 μM, Q starting 200 μM, read-out: IC50 MDA-MB-231 24 h) is 166 µM; in data set [1] (MDA-MB-231, 24 h, 24 h, read-out: IC50 MDA-MB-231 24 h) it was 70.9 µg/mL and 166 µM; in data set [1] (MDA-MB-231, 48 h, read-out: IC50 MDA-MB-231 48 h, 48 h), 57 µg/mL and 134 µM; in data set [1] (MDA-MB-231, 48 h, read-out: IC50 MDA-MB-231 48 h, 48 h, combination study Table 5B), 134 µM; in data set [1] (MDA-MB-231, 72 h, 72 h, combination study Table 5B, read-out: IC50 MDA-MB-231 72 h), 119 µM; in data set [1] (MDA-MB-231, 72 h, 72 h, read-out: IC50 MDA-MB-231 72 h), 50.7 µg/mL and 119 µM. For the same compound, the IC50 in data set [1] (MDA-MB-231, 72 h, 72 h treatment, mean ± S.D., vs DMSO 0.5% control, read-out: MDA-MB-231 IC50) is 50.7 ± 2.4 µg/mL; in data set [1] (MDA-MB-231, 96 h, 96 h, combination study Table 5B, read-out: IC50 MDA-MB-231 96 h), 102 µM; in data set [1] (MDA-MB-231, 96 h, 96 h, read-out: IC50 MDA-MB-231 96 h), 43.3 µg/mL and 102 µM; in data set [2] (read-out: IC50 MCF-7 24 h, 24 h, combination study Table 5A, T starting 50 μM, Q starting 200 μM) it was 155 µM; in data set [2] (read-out: IC50 MCF-7 24 h, 24 h, listed as QUEBECOL Natural), 155 µM; in data set [2] (read-out: IC50 MCF-7 48 h, 48 h, combination study Table 5A), 126 µM. Besides, the IC50 is 126 µM in data set [2] (read-out: IC50 MCF-7 48 h, 48 h, listed as QUEBECOL Natural); 109 µM in data set [2] (read-out: IC50 MCF-7 72 h, 72 h, combination study Table 5A); 109 µM in data set [2] (read-out: IC50 MCF-7 72 h, 72 h, listed as QUEBECOL Natural); 87.9 µM in data set [2] (read-out: IC50 MCF-7 96 h, 96 h, combination study Table 5A); 87.9 µM in data set [2] (read-out: IC50 MCF-7 96 h, 96 h, listed as QUEBECOL Natural). Also, in the data set on colon cancer cell lines, the “cytotoxic effect on colon cancer cell lines” value is “cytotoxic effect”. The “IC50 MCF-7 24 h” value in data set [2] (24 h) was 65.9 µg/mL (≈ 155 µM). In addition, in data set [2] (48 h), the “IC50 MCF-7 48 h” value came to 53.5 µg/mL (≈ 125 µM). For the same compound, the “MCF-7 IC50” value in data set [2] and in data set [2] (listed as QUEBECOL Natural) was 46.3 ± 2.1 µg/mL in each case. Also, the “IC50 MCF-7 96 h” value in data set [2] (96 h) stood at 37.4 µg/mL (≈ 87.7 µM).
